Data on three compounds can be found in publication PMC11771213, “Molecular Docking Studies and In Vitro Activity of Pancreatic Lipase Inhibitors from Yak Milk Cheese” (International Journal of Molecular Sciences, 2025).

For test [1], the target named is T1, porcine pancreatic lipase (PL) (Sus scrofa, UniProt P00591).
T1 construct: purchased Jiangsu Jingmei Bio technology (Yancheng, China)
T1 sequence (P00591 1-450): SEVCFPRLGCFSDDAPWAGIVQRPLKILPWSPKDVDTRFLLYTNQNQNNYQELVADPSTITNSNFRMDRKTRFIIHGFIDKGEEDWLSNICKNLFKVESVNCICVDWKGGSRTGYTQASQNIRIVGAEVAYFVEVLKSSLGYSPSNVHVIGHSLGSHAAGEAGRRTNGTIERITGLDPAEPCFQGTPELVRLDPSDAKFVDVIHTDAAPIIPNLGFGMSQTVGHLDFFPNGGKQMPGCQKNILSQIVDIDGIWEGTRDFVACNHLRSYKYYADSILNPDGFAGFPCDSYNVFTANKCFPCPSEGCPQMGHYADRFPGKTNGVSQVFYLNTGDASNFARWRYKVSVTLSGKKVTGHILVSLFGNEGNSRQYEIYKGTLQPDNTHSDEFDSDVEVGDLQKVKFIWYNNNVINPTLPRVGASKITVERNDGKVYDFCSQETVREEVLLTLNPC
The test can be described thus: In vitro PL inhibition assay (p-nitrophenylbutyrate substrate). The class given is biochemical. The settings on record: triplicate; for IC50: porcine PL 1 mg/mL in 100 mM Tris HCl, pre-incubation 37 °C 30 min, 5 mM p-nitrophenylbutyrate, absorbance 450 nm, from fitted inhibition curve; for PL inhibition rate: range over concentrations of 0.2–1.0 mg/mL, 37 °C, 30 min pre-incubation. As for the experimental part:
(§1) This experiment, based on the method of Glisan et al. and with slight modifications to the experimental method, determined the effects of peptides RK7 and KQ7 on porcine pancreatic lipase (PL). Firstly, dissolve p-nitrophenylbutyrate (5 mM) in a sodium acetate solution (5 mM, containing 1% Triton X-100). Dissolve porcine pancreatic lipase (PL) (1 mg/mL) in 100 mM Tris HCl buffer. Incubate with different concentrations of porcine pancreatic lipase (PL) and peptides in 96-well plates (37 °C) for 30 min. Then, mix with 5 mM p-nitrophenylbutyrate solution to initiate the enzyme reaction. The labeled pig pancreatic lipase antibody binds to form an antibody–antigen enzyme-labeled antibody complex. The substrate is converted to blue by enzyme catalysis and ultimately to yellow by acid action. The intensity of color is positively correlated with the presence of porcine pancreatic lipase (PL) in the sample. The enzyme-linked immunosorbent assay (ELISA) was used to measure the absorbance (OD value) at a wavelength of 450 nm, and the activity concentration of porcine pancreatic lipase (PL) in the sample was calculated using a standard curve.(1) PL inhibition rate/%=1−A−B/C−D × 100 where A is the absorbance value of the sample; B is the absorbance value of the sample blank; C is the absorbance value of the control group; and D is the absorbance value of the control blank group.
All measured data in the experiment were determined independently and measured in triplicate. All data were processed using SPSS Statistics 26.0. Data plots were generated using Origin 8.5 and GraphPad Prism 8.0.2.

The target in test [2] is T1, porcine pancreatic lipase (PL). The test can be described thus: PL inhibitory activity after simulated gastrointestinal digestion (pepsin, then trypsin). The class given is biochemical. Particulars: pepsin pH 2, then trypsin pH 7.5, enzyme–substrate 1:50 w/w, 37 °C. As for the experimental part: as §1, with “group. […]” for “group.”

No end group written: not given here.

Turning to `CC(C)c1c(C(=O)Nc2ccccc2)c(-c2ccccc2)c(-c2ccc(F)cc2)n1CC[C@@H](O)C[C@@H](O)CC(=O)O` [atorvastatin, reference compound], in test [1], half-maximal inhibition (IC50) required 886 µM and the PL inhibition rate is listed as 29.27–67.09%.
Consider “KVLPVPQ [KQ7, Lys-Val-Leu-Pro-Val-Pro-Gln]”, for which, in test [2] (120 min time point), the “PL inhibition rate at 120 min of simulated gastrointestinal digestion” value is given as 61.31%. Besides, half-maximal inhibition in test [1] (IC50) required 760 µM.
Regarding “RPKHPIK [RK7, Arg-Pro-Lys-His-Pro-Ile-Lys]”, the “PL inhibition rate after simulated gastrointestinal digestion (range over digestion)” value in test [2] (120-minute digestion, sampled every 30 min) is given as 44.34–62.35%. For the same compound, in test [1], 788 µM corresponded to half-maximal inhibition (IC50) and the PL inhibition rate is 19.74–62.32%.

The term IC50 denotes the concentration that gives 50% inhibition. High values mean lower potency, low ones higher potency.
